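Test compounds were applied to cells in 96-well plates for 48 hours at 5 doses. GI50: concentration for 50% inhibition of growth. TGI marks complete inhibition of growth.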
Columns and labels:
Experiment in all cases: NCI-60 cell line screen, 48 h
[1] = test system: HCC-2998 colon
[2] = test system: UO-31 renal
[3] = test system: SK-OV-3 ovarian
[4] = test system: MDA-MB-231 breast
[5] = test system: HOP-62 NSCLC
[6] = test system: OVCAR-8 ovarian
[7] = test system: MDA-MB-435
[8] = test system: UACC-257 melanoma
[9] = test system: NCI-H226 lung
[10] = test system: SK-MEL-2 melanoma
[11] = test system: OVCAR-5 ovarian
[12] = test system: NCI-H460 lung
[13] = test system: LOX IMVI melanoma
[14] = test system: HL-60(TB) leukemia
[15] = test system: U251 CNS
[16] = test system: CCRF-CEM leukemia
[17] = test system: SF-295 CNS
[18] = test system: SN12C renal
[19] = test system: KM12 colon
[20] = test system: NCI-H23 lung
[21] = test system: MALME-3M melanoma
[22] = test system: A498 renal
[23] = test system: PC-3 prostate
[24] = test system: HCT-116 colon
[25] = test system: UACC-62 melanoma
[26] = test system: ACHN renal
[27] = test system: COLO 205 colon
[28] = test system: IGROV1 ovarian
[29] = test system: TK-10 renal
[30] = test system: OVCAR-4 ovarian
[31] = test system: SNB-75 CNS
[32] = test system: EKVX NSCLC
[33] = test system: RPMI-8226 leukemia
[34] = test system: HOP-92 NSCLC
[35] = test system: HCT-15 colon
[36] = test system: SNB-19 CNS
[37] = test system: 786-0 renal
[38] = test system: SR leukemia
[39] = test system: A549 NSCLC
[40] = test system: SK-MEL-28 melanoma
[41] = test system: HS 578T breast
[42] = test system: SF-268 CNS
[43] = test system: T-47D breast
[44] = test system: DU-145 prostate
[45] = test system: SK-MEL-5 melanoma
[46] = test system: SF-539 CNS
[47] = test system: OVCAR-3 ovarian
[48] = test system: MCF7 breast
[49] = test system: K-562 leukemia
[50] = test system: SW-620 colon
[51] = test system: HT29 colon
[52] = test system: NCI-H522 lung
[53] = test system: NCI/ADR-RES ovarian
[54] = test system: MOLT-4 leukemia
[55] = test system: M14 melanoma
[56] = test system: CAKI-1 renal
[57] = test system: BT-549 breast

COC(=O)c1cc2c(cc1Cl)SC1=NN(C)S(=O)N1S2(=O)=O (centres undefined) gave a GI50 [1] of over 100 µM, a TGI [1] of over 100 µM and a GI50 [2] of 70.2 µM. It also gave a TGI [2] of over 100 µM, a GI50 [3] of over 100 µM and a TGI [3] of over 100 µM. It also gave a GI50 [4] of over 100 µM, a TGI [4] of over 100 µM and a GI50 [5] of over 100 µM. For the same compound, the TGI [5] was over 100 µM, the GI50 [6] was over 100 µM and the TGI [6] was over 100 µM. It also gave a GI50 [7] of over 100 µM, a TGI [7] of over 100 µM and a GI50 [8] of over 100 µM. The TGI [8] was over 100 µM, the GI50 [9] was over 100 µM and the TGI [9] was over 100 µM. It also gave a GI50 [10] of over 100 µM, a TGI [10] of over 100 µM and a GI50 [11] of over 100 µM. The TGI [11] was over 100 µM, the GI50 [12] was over 100 µM and the TGI [12] was over 100 µM. It also gave a GI50 [13] of over 100 µM, a TGI [13] of over 100 µM and a GI50 [14] of over 100 µM. It also gave a TGI [14] of over 100 µM, a GI50 [15] of over 100 µM and a TGI [15] of over 100 µM. It also gave a GI50 [16] of over 100 µM, a TGI [16] of over 100 µM and a GI50 [17] of over 100 µM. For the same compound, the TGI [17] was over 100 µM, the GI50 [18] was over 100 µM and the TGI [18] was over 100 µM. The GI50 [19] was over 100 µM, the TGI [19] was over 100 µM and the GI50 [20] was over 100 µM. The TGI [20] was over 100 µM, the GI50 [21] was over 100 µM and the TGI [21] was over 100 µM. The GI50 [22] was 75 µM, the TGI [22] was over 100 µM and the GI50 [23] was over 100 µM. It also gave a TGI [23] of over 100 µM, a GI50 [24] of over 100 µM and a TGI [24] of over 100 µM. The GI50 [25] was over 100 µM, the TGI [25] was over 100 µM and the GI50 [26] was over 100 µM. It also gave a TGI [26] of over 100 µM, a GI50 [27] of over 100 µM and a TGI [27] of over 100 µM. For the same compound, the GI50 [28] was over 100 µM, the TGI [28] was over 100 µM and the GI50 [29] was over 100 µM. It also gave a TGI [29] of over 100 µM, a GI50 [30] of over 100 µM and a TGI [30] of over 100 µM. The GI50 [31] was 85.9 µM, the TGI [31] was over 100 µM and the GI50 [32] was over 100 µM. It also gave a TGI [32] of over 100 µM, a GI50 [33] of over 100 µM and a TGI [33] of over 100 µM. For the same compound, the GI50 [34] was 53.7 µM, the TGI [34] was over 100 µM and the GI50 [35] was over 100 µM. For the same compound, the TGI [35] was over 100 µM, the GI50 [36] was over 100 µM and the TGI [36] was over 100 µM. It also gave a GI50 [37] of over 100 µM, a TGI [37] of over 100 µM and a GI50 [38] of over 100 µM. The TGI [38] was over 100 µM, the GI50 [39] was over 100 µM and the TGI [39] was over 100 µM. The GI50 [40] was over 100 µM, the TGI [40] was over 100 µM and the GI50 [41] was over 100 µM. It also gave a TGI [41] of over 100 µM, a GI50 [42] of over 100 µM and a TGI [42] of over 100 µM. The GI50 [43] was over 100 µM, the TGI [43] was over 100 µM and the GI50 [44] was over 100 µM. It also gave a TGI [44] of over 100 µM, a GI50 [45] of over 100 µM and a TGI [45] of over 100 µM. The GI50 [46] was over 100 µM, the TGI [46] was over 100 µM and the GI50 [47] was over 100 µM. It also gave a TGI [47] of over 100 µM, a GI50 [48] of over 100 µM and a TGI [48] of over 100 µM. It also gave a GI50 [49] of over 100 µM, a TGI [49] of over 100 µM and a GI50 [50] of over 100 µM. It also gave a TGI [50] of over 100 µM, a GI50 [51] of over 100 µM and a TGI [51] of over 100 µM. For the same compound, the GI50 [52] was over 100 µM, the TGI [52] was over 100 µM and the GI50 [53] was over 100 µM. The TGI [53] was over 100 µM, the GI50 [54] was over 100 µM and the TGI [54] was over 100 µM. It also gave a GI50 [55] of over 100 µM, a TGI [55] of over 100 µM and a GI50 [56] of over 100 µM. The TGI [56] was over 100 µM, the GI50 [57] was over 100 µM and the TGI [57] was over 100 µM.

From PubChem BioAssay (NCI)
